# Experimental data as given in US6939830B1, “Method for fighting soil insects with phenyl-pyrazoles” (Basf Agro B.V. Arnhem (NL) - Wadenswil Branch, priority 1999, dated 2005).
# Tests used:
# [1] = system: larvae of click beetles of the genus Agriotes, in particular Agriotes lineatus; experiment: Maize field trial, Beaufort: emerged plants counted after bait granules incorporated in the sowing row; type: in vivo; conditions: 50 days after sowing, 2 mm maize-meal granules with 0.25% fipronil, untreated 30
# Excerpt: (§1) A surface of 1 ha is sown with maize at the rate of about 98, 100 untreated seeds. This surface is divided into 27-m^2 plots. At the same time as the sowing, there are incorporated into the soil, in the sowing row, 2 mm granules containing a composition consisting of: The quantities of granules thus spread vary from 2.5 to 10 kg per hectare. Untreated plots are kept to serve as control and to verify the extent of the damage by the insects. Likewise, the plots will be treated with a commercial insecticide which is reputed effective and called reference. Each modality is repeated four times. Approximately 50 days after sowing, the maize plants which have emerged are counted. The soil is dug out and scraped in order to capture and identify the insects responsible for the damage; a large presence of larvae of click beetles of the genus Agriotes, in particular Agriotes lineatus.
# [2] = system: larvae of click beetles of the genus Agriotes, in particular Agriotes sordidus; experiment: Maize field trial, St Hilaire: emerged plants counted after bait granules incorporated in the sowing row; type: in vivo; conditions: 22 days after sowing, 2 mm maize-meal granules with 0.25% fipronil, untreated 19
# Excerpt: as §1, with “of 0.1” for “of 1”, “about 8000” for “about 98, 100”, “into 40-m^2” for “into 27-m^2”, “Approximately 20” for “Approximately 50”, “Agriotes sordidus, is observed for the untreated control.” for “Agriotes lineatus.”
# [3] = dose of fipronil 6 g per hectare
# [4] = dose of fipronil 50 g per hectare
smiles,measurement,setting,value
"N#Cc1nn(-c2c(Cl)cc(C(F)(F)F)cc2Cl)c(N)c1[S+]([O-])C(F)(F)F (stereo not shown) [fipronil, 5-amino-3-cyano-1-[2,6-di-chloro-4-(trifluoromethyl)phenyl]-4-[(trifluoromethyl)-sulphinyl]-1H-pyrazole]",plants observed per 10 meters of furrow,[1]; [3],40 plants per 10 meters of furrow
same,plants observed per 10 meters of furrow,[1]; [4],49.8 plants per 10 meters of furrow
same,plants observed per 10 meters of furrow,[2]; [3],49 plants per 10 meters of furrow
same,plants observed per 10 meters of furrow,[2]; [4],49 plants per 10 meters of furrow
